Measured values from ChEMBL document CHEMBL1201862, “PubChem BioAssay data set” (2004).
The source made the active and inactive calls.

What was measured:
Leucine aminopeptidase = target: T1, Leucine aminopeptidase (Plasmodium falciparum 3D7, UniProt Q8IL11); assay: P. falciparum M17LAP inhibitors, primary screen, biochemical, fluorogenic H-Leu-NHMec substrate, 1536-well (AID 1619); type: functional
T1 sequence (Q8IL11 whole entry): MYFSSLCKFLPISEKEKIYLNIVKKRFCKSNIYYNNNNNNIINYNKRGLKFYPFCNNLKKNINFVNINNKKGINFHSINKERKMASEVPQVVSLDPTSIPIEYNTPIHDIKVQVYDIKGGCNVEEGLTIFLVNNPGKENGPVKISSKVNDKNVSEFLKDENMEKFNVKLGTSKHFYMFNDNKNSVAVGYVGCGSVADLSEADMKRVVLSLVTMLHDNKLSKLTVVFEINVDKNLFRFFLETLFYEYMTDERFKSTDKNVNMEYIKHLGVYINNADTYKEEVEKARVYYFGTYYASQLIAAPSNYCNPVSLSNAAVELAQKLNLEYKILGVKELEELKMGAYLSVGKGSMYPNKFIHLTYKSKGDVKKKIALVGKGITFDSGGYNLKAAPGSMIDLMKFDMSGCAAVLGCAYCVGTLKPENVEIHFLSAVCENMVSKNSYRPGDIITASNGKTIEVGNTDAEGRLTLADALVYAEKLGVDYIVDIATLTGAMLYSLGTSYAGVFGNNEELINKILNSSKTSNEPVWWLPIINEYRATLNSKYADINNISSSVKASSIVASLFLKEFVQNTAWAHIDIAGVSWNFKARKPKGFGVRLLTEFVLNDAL

[1] = target: Induced myeloid leukemia cell differentiation protein Mcl-1 (Homo sapiens, UniProt Q07820); type: functional
Chain of Induced myeloid leukemia cell differentiation protein Mcl-1 (Q07820 whole entry): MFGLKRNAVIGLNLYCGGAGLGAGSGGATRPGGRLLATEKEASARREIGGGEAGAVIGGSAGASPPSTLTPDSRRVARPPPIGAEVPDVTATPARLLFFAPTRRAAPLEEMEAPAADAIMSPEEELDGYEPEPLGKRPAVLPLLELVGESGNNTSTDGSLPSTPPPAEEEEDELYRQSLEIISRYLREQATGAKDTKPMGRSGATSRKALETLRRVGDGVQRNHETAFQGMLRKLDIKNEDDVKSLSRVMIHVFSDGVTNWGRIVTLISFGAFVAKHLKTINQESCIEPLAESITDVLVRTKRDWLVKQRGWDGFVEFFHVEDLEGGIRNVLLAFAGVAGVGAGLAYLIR

H9c2 = assay: cells; type: functional, cell-based; conditions: Rattus norvegicus, H9c2, Myocardium;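 also: confirmatory concentration-response retest of ultra-high-throughput screening hits for modulation of myocardial damage; cell death induced by hydrogen peroxide oxidative stress; compound pretreatment for 60 min then peroxide exposure for 2 h; potency is for protecting the cells against peroxide damage rather than for killing them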
[2] = target: T2, Mannose-6-phosphate isomerase (Homo sapiens, UniProt P34949); assay: MPI inhibition at elevated mannose 6-phosphate – biochemical, fluorescence intensity, high mannose 6-phosphate, primary screen (AID 1220)
T2 sequence (P34949 whole entry): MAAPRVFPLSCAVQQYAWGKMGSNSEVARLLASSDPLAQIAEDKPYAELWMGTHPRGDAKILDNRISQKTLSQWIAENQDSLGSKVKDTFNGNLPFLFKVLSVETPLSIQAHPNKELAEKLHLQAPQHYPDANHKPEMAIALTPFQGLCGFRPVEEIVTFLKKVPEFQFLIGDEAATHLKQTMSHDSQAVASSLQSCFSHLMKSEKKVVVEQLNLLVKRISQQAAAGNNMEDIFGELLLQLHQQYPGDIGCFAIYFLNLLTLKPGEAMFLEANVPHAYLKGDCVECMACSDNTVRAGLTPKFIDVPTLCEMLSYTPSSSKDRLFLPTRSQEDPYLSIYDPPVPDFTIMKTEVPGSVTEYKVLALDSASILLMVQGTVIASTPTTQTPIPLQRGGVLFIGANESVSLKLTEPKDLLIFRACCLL

Fatty acid synthase [3] = target: T3, Fatty acid synthase (Homo sapiens, UniProt P49327); assay: inhibition of human FAS-TE enzyme activity – biochemical, kinetic fluorescence intensity, dose response (AID 624326); type: functional;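 also: rate of fluorescence rise from hydrolysis of a fluorogenic O-methyl fluorescein ester substrate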
T3 sequence (P49327 whole entry): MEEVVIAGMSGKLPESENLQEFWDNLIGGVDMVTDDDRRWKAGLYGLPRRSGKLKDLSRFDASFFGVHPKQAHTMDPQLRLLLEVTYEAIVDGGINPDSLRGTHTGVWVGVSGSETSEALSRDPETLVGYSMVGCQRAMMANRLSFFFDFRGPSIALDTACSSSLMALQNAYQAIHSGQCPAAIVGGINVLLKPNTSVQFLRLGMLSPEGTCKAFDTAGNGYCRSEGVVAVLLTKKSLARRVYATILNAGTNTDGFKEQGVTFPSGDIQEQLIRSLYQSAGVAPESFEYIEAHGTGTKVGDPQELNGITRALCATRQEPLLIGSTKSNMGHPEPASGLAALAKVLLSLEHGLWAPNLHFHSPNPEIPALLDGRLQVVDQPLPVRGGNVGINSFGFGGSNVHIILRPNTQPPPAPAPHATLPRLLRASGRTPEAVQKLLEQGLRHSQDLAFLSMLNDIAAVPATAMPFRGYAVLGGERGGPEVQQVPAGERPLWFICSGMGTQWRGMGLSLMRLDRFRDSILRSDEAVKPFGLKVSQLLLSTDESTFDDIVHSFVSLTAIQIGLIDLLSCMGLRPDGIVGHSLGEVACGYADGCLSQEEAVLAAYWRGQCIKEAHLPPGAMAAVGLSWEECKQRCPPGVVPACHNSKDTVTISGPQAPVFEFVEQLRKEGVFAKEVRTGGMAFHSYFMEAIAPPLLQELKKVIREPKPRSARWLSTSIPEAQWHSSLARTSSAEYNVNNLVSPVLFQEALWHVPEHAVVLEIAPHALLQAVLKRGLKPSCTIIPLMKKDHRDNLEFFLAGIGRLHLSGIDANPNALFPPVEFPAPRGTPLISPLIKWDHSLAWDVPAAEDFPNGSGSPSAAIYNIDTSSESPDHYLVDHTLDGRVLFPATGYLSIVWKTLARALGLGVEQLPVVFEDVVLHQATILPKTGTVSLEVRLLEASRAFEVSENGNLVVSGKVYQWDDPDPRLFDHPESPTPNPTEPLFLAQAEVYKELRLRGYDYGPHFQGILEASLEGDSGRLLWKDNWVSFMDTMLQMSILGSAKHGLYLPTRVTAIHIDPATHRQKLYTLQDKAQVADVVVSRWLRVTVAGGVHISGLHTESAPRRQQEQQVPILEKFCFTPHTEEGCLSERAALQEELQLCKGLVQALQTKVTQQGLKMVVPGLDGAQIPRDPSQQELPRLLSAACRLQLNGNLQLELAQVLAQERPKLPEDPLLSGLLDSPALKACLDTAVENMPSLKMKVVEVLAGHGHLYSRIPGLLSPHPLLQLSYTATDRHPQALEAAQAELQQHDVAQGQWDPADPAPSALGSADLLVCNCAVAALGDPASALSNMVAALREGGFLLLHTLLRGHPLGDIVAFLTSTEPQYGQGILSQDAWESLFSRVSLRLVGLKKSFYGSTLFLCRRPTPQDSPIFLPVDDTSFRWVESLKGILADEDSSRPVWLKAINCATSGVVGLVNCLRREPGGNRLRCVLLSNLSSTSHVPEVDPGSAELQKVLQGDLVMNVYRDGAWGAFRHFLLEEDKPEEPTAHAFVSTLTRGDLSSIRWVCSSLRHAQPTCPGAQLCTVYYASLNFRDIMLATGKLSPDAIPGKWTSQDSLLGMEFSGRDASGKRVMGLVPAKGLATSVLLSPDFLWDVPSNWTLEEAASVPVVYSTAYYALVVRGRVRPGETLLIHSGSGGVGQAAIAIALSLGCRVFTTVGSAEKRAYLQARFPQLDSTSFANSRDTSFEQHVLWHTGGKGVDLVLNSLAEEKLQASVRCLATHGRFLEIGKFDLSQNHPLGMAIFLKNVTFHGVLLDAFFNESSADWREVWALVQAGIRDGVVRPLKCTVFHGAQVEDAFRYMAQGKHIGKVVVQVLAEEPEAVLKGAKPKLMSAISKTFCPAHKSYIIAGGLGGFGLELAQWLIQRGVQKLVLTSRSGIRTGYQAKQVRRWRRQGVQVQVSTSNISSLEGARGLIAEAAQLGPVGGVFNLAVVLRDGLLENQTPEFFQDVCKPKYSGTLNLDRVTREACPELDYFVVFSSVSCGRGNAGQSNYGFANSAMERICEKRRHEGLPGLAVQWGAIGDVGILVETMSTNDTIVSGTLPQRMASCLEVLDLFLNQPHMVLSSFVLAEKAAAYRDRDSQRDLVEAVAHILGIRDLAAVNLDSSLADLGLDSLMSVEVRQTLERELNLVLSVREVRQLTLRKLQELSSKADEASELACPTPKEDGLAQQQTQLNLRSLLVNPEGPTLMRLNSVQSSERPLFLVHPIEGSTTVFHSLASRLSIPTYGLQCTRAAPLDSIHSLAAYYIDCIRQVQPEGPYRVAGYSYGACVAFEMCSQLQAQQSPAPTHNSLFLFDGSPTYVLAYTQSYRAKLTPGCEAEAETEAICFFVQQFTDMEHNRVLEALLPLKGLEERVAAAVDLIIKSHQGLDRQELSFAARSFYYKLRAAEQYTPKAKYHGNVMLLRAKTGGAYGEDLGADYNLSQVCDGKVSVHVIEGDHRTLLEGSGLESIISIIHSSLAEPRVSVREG

Fatty acid synthase [4] = target: T3, Fatty acid synthase; assay: inhibition of human FAS-TE enzyme activity – biochemical, endpoint fluorescence intensity, uHTS hits, dose response (AID 624327); type: functional;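 also: fluorescence from hydrolysis of an O-methyl fluorescein acyl ester substrate by the enzyme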
[5] = target: T4, Ubiquitin-conjugating enzyme E2 N (Homo sapiens, UniProt P61088); type: functional;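 also: Dose-response confirmation in a TR-FRET assay detecting UBC13-driven polyubiquitin chain formation, inhibition measured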
T4 sequence (P61088 whole entry): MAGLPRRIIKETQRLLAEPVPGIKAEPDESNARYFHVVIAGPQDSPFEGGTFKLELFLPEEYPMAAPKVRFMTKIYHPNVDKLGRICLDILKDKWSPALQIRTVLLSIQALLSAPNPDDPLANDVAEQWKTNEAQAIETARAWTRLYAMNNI

[6] = Luminescence Cell-Based Dose Retest to Confirm Inhibitors of Cancer Stem Cells. [Related pubchem assays (depositor defined):AID2717, AID2721]; type: functional; conditions: Homo sapiens
P388/ADR = assay: cells; type: functional; conditions: Mus musculus
SN12K1 = assay: cells; type: functional; conditions: Homo sapiens
P388 = assay: cells; type: functional; conditions: Mus musculus
Paired box protein Pax-8 = Paired box protein Pax-8 (Homo sapiens, UniProt Q06710); assay: PAX8 transcriptional activity inhibition in RMG-I – RMG-I cells, luciferase, cherry-pick, dose response (AID 687027); type: functional, cell-based;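 also: luciferase reporter driven by Pax8 target thyroperoxidase promoter measured by SteadyGlo luminescence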
Chain of Paired box protein Pax-8 (Q06710 whole entry): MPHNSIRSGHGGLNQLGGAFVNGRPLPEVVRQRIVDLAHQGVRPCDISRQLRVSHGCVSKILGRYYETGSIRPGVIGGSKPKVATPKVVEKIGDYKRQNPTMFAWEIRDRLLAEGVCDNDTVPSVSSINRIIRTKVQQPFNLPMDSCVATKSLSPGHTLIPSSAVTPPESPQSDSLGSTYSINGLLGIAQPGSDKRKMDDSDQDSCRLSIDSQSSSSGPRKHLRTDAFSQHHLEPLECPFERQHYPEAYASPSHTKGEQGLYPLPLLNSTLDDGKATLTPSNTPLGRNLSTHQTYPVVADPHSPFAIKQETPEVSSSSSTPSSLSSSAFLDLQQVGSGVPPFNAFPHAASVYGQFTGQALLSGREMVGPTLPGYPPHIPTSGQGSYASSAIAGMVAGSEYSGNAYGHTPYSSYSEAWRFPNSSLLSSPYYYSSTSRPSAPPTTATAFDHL

[7] = OVCAR-3 cell viability loss – plate reader, dry powder samples, PAX8 inhibitor project, dose response (AID 743044); type: functional, cell-based
[8] = OVCAR8 cell viability loss – plate reader, dry powder samples, PAX8 project, dose response (AID 743197); type: functional, cell-based; conditions: OVCAR-8

For `O=C(O)Cn1nnnc1SCC(=O)Nc1ccc(OC(F)(F)F)cc1`, the IC50 (Leucine aminopeptidase) was 5.22 µM (active).

With `CC(C)Oc1ccc(C(CC(=O)O)NC(=O)CSc2nnc[nH]2)cc1` (centres undefined) the IC50 (Leucine aminopeptidase) was 47.4 µM (active).

For `COc1ccc(NC(=O)CSc2ncnc3c2sc2ccccc23)c(OC)c1`, the IC50 [1] was 10.3 µM (not active).

With `CCCOc1ccc(C(=O)Nc2ccc(N(C)C)cc2)cc1` the IC50 [1] was 3.27 µM (not active).

For `CCC(C)Nc1ncnc2c1cnn2Cc1ccc(Cl)cc1` (centres undefined), the IC50 (H9c2) was > 79 µM (inactive).

For `Oc1ccc(N2CCN(c3ncnc4sc5c(c34)CCC5)CC2)cc1`, the IC50 [1] was 4.31 µM (active).

With `CNc1c([N+](=O)[O-])ccc2c1=NC1(CCCCC1)[N+]=2[O-]` the IC50 [2] was > 50 µM (not active).

With `O=C(/C=C\c1cn(-c2ccccc2)nc1-c1ccc2c(c1)OCCO2)N1CCOCC1` the IC50 (H9c2) was > 79 µM (inactive).

For `O=[N+]([O-])c1ccc(Sc2nnc(-c3ccccc3)[nH]2)nc1`, the IC50 (Fatty acid synthase [3]) was 10.6 µM (active), the IC50 (Leucine aminopeptidase) was 31.5 µM (active) and the IC50 (Fatty acid synthase [4]) was 10.9 µM (active).

For `CCOc1ccc(N2C(=O)CC(SCCN)C2=O)cc1` (centres undefined), the IC50 (Leucine aminopeptidase) was 23.6 µM (active).

For `COc1cc(OC)cc(C(=O)Nc2ccc(C(=O)Nc3ccccc3OC)cc2)c1`, the IC50 (H9c2) was > 79 µM (inactive).

For `O=C(COC(=O)c1cc(O)nc(O)n1)Nc1cccc(Cl)c1`, the IC50 [5] was > 20 µM (inactive).

With `O=C(Nc1cccc(/C=C/c2ccccn2)c1)c1ccc(-n2cncn2)cc1` the IC50 (H9c2) was 38.2 µM (inactive).

In the case of `COc1cccc(-c2sc3ccccc3c2-c2ccc(OCCN3CCCCC3)cc2)c1`, the AC50 [6] is reported as 1.43 µM (active) and the IC50 [5] is reported as > 20 µM (inactive).

With `COc1cc(/C=C/C(=O)OCC(=O)N2c3ccccc3NC(=O)C2(C)C)cc(OC)c1OC` the IC50 (H9c2) was > 79 µM (inactive).

For `C[C@H]1Cn2cnc(C(=O)N[C@@H](Cc3c[nH]c4ccccc34)C(=O)OC(C)(C)C)c2C(=O)N1`, the IC50 (H9c2) was 18 µM (active).

In the case of `O=C(CCl)NNC1=Nc2ccc(Cl)cc2SC1`, the GI50 (P388/ADR) is reported as 0.627 µM (active), the GI50 (SN12K1) is reported as 3.45 µM (inactive) and the GI50 (P388) is reported as 0.236 µM (active).

In the case of `N#C/C(=C\c1ccncc1)c1csc2ccccc12`, the GI50 (P388/ADR) is reported as 6.49 µM (inactive), the GI50 (SN12K1) is reported as 29.2 µM (inactive) and the GI50 (P388) is reported as 19.1 µM (inactive).

For `C[C@@H]1CN([C@H](C)CO)C(=O)c2cc(NS(=O)(=O)c3ccc(F)cc3)ccc2O[C@@H](C)CCCCO[C@@H]1CN(C)CC1CCCCC1`, the AC50 (Paired box protein Pax-8) was 13 µM (active), the AC50 [7] was 44 µM (active) and the AC50 [8] was > 70 µM (inactive).

With `C[C@@H]1CCCCO[C@H](CN(C)C(=O)Nc2ccc(C(F)(F)F)cc2)[C@@H](C)CN([C@@H](C)CO)C(=O)c2cc(NC(=O)Nc3ccc(C(F)(F)F)cc3)ccc2O1` the AC50 (Paired box protein Pax-8) was 2.32 µM (active), the AC50 [7] was 19.6 µM (active) and the AC50 [8] was 32.8 µM (active).

For `C/C=C1/C(=O)O[C@]23C=C[C@@H]4C(C(=O)OC)=CO[C@H](O[C@@H]12)[C@@H]43` [PLUMERICIN], the GI50 (P388/ADR) was 0.0853 µM (active), the GI50 (SN12K1) was 1.09 µM (active) and the GI50 (P388) was 0.105 µM (active).
